{"source": "patent US20070232575A1", "about": "“Treatment of Pulmonary Artery Hypertension with Dhea, Dheas, Dhea Analogs, or Dhea Derivatives” (priority 2004, published 2007)", "key": {"BKCa [1]": {"molecular_target": "T1, BKCa (Rattus norvegicus, UniProt Q62976)", "T1 construct": "from tissue; host or cells: intrapulmonary artery rings of adult male Wistar rats", "T1 sequence (Q62976 whole entry)": "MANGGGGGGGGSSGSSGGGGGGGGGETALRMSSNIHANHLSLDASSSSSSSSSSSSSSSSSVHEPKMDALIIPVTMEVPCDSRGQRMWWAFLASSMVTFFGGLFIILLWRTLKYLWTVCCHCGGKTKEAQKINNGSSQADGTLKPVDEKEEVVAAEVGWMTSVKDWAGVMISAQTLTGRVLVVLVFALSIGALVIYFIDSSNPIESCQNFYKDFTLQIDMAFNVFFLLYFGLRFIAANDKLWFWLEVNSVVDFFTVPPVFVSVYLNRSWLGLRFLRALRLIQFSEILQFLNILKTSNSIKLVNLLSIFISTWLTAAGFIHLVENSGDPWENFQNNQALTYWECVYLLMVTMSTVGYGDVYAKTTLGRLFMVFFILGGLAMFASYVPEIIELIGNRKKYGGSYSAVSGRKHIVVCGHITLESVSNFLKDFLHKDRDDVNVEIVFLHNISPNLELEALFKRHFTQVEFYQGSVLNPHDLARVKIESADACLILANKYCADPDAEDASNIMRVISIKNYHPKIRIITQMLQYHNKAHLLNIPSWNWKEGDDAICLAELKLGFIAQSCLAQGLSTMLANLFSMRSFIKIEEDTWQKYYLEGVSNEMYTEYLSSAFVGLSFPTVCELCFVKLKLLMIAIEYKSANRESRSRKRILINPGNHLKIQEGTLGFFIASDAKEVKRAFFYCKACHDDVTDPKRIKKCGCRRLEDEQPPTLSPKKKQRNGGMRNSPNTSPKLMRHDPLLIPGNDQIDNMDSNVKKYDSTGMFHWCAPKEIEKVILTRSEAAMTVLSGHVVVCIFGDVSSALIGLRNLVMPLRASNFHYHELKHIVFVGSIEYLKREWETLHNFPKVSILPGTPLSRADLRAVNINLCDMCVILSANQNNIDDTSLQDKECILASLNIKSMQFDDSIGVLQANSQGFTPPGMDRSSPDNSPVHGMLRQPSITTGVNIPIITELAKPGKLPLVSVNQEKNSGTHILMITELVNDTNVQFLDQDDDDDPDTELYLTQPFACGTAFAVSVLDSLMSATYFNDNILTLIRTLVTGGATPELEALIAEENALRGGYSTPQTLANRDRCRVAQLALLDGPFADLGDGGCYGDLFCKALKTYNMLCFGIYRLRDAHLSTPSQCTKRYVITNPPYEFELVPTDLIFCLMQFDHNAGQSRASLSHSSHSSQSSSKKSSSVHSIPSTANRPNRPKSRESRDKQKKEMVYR", "T1 sequence (P97678 whole entry partner)": "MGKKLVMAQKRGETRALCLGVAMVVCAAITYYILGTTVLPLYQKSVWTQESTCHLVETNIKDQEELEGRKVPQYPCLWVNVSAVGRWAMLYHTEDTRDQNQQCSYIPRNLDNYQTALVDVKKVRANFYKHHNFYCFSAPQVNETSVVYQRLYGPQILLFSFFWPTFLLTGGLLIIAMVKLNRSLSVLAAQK", "assay": "IbTx-induced contraction of IPA rings from CH-DHEA rats", "assay_type": "in vivo", "settings": "for increase of tension induced by IbTx: rings from CH-DHEA rats compared with control and CH rats", "protocol": "Statistical analyses for the experiments described herein were performed by using NCSS 5.0 software (NCSS, Kaysville, Utah). Values were expressed as mean±SEM. Contractions were expressed as a percentage of K^+-rich (80 mM) solution-induced contractions. Intergroup differences were assessed by a repeated-measures ANOVA or factorial ANOVA, as appropriate. Post hoc analysis used a Fisher multiple comparison test. For some comparisons, the Pearson product moment correlation coefficient between pairs of variables was used as indicated (ORIGIN 5.0, OriginLab, Northampton, Mass.). Regarding the number of experiments, (n) refers to the number of rings or cells and (N) to the number of animals. Differences were considered significant when P<0.05.\n(§1) The heart and lungs were removed and intrapulmonary arteries (IPAs) (150-300 μm of internal diameter) were then dissected. The adventitial and intimal layers were removed. For contraction experiments, rings (3 mm in length) were prepared.\nCH induces remodeling of the intrapulmonary artery (IPA) in the rat model of CH-PAH. To examine the changes in the IPA wall upon CH exposure, the following method was performed. Isometric contractions were measured in rings from IPAs that were mounted in vertical 5-ml organ baths of a computerized isolated organ bath system (IOX, EMKA Technologies, Paris), as described in Bonnet, S., et al. (2001, Am. J. Physiol. 281, L183-L192, which is incorporated by reference herein in its entirety). Baths were filled with Krebs-Henseleit solution (composition in mM: 118.4 NaCl/4.7 KCl/2.5 CaCl2/1.2 MgSO4/1.2 KH2PO4/25 NaHCO3/11.1 D-glucose, pH 7.4). The baths were maintained at 37° C. and bubbled with a 95% O2/5% CO2 gas mixture. […] A concentration increment was made once the maximal contractile effect of the preceding concentration had been recorded."}, "acute hypoxic challenge": {"tested_on": "acute hypoxic challenge", "assay": "Pressure response of the PA to acute hypoxic challenge", "assay_type": "in vivo, rat", "settings": "3 weeks of hypoxia under DHEA treatment; response disappeared without DHEA", "experimental": "To determine the effect of the chronic hypoxia treatment-induced CH-PAH and to determine the effect of DHEA administration on PAP, the following PAP measurement method was used. Rats were anaesthetized with ketamine 50 mg/kg and xylazine 10 mg/kg by i.p. injection. […] The effect of DHEA on the systemic blood pressure was controlled by another catheter placed into the left carotid artery. Throughout all the experiments, heart rate and oxygen saturation were monitored. Acute hypoxic stress with fraction of inspired O2 of 10% were applied by administration of an air plus nitrogen gas mixture. The fraction of inspired O2 was monitored with an oxygen analyzer (Servomex, Crowborough, Great Britain), and the effects on the PAP were measured over a 10-15 minute period."}, "PASMCs from CH rats": {"tested_on": "PASMCs from CH rats", "assay": "In vitro DHEA treatment of PASMCs, resting [Ca2+]i, with K channel blockers and pathway inhibitors", "assay_type": "cell-based, rat", "protocol": "as §1\nAs mentioned earlier, Ca^2+ is thought to play an important role in the response to chronic hypoxia. To measure the effects of DHEA on [Ca^2+]i of individual PASMCs, a [Ca^2+]i-sensitive fluorophore, indo-1 (Calbiochem, San Diego, Calif.), was employed. […] The recording system included a Nikon Diaphot inverted microscope fitted with epifluorescence.\nTo further examine how DHEA functions to decrease the [Ca^2+]i in PASMCs, the following experiment was performed."}, "IPA wall": {"tested_on": "IPA wall", "assay": "CH-induced intrapulmonary artery (IPA) wall remodeling, media layer thickness", "assay_type": "in vivo, rat", "protocol": "Lung sections were formalin-fixed in preparation for histology studies. PA external diameter (PAED), PA internal diameter (PAID), and percentage vessel wall thickness (PAED−PAID)/PAED×100) were measured in small- and medium-sized PAs (80-150 μm). Each group was comprised of four rats, and 10 measures were made per rat by an investigator blinded to the treatment groups.\nCH induces remodeling of the intrapulmonary artery (IPA) in the rat model of CH-PAH. To examine the changes in the IPA wall upon CH exposure, the following method was performed. Isometric contractions were measured in rings from IPAs that were mounted in vertical 5-ml organ baths of a computerized isolated organ bath system (IOX, EMKA Technologies, Paris), as described in Bonnet, S., et al. (2001, Am. J. Physiol. 281, L183-L192, which is incorporated by reference herein in its entirety). Baths were filled with Krebs-Henseleit solution (composition in mM: 118.4 NaCl/4.7 KCl/2.5 CaCl2/1.2 MgSO4/1.2 KH2PO4/25 NaHCO3/11.1 D-glucose, pH 7.4). The baths were maintained at 37° C. and bubbled with a 95% O2/5% CO2 gas mixture. The tissues were set at optimal length by equilibration against a passive load of 10 mN for rings obtained from normoxic rats and 20 mN for rings obtained from hypoxic rats (Jones, J. E., et al. (2002) Am. J. Physiol. 283, H364-H371, which is incorporated by reference herein in its entirety). A cumulative concentration-response curve was then constructed. A concentration increment was made once the maximal contractile effect of the preceding concentration had been recorded."}, "[2]": {"tested_on": "chronic hypoxic-pulmonary artery hypertension (CH-PAH)", "assay": "Mean pulmonary arterial pressure (PAP) in chronic hypoxic (CH-PAH) rat model", "assay_type": "in vivo", "protocol": "To study the mechanisms of PAH and its possible treatments, an animal model was utilized. The placement of rats in a hypobaric chamber for 7 to 21 days induced chronic hypoxia, resulting in CH-PAH, a useful model system for studying mammalian PAH.\nThe rat model experiments were performed as follows. Adult male Wistar rats (220-240 g) were randomized into five groups. […] Intravascular administration was performed via the catheter inserted in the right jugular vein."}, "BKCa [3]": {"tested_on": "BKCa", "assay": "Immunoblot of BKCa in arterial pulmonary extracts", "assay_type": "in vivo, rat", "settings": "oral DHEA 3 weeks", "protocol": "The level of expression of BKCa was examined using an immunoblot. Arterial pulmonary extracts were prepared from a pool of eight rats per sample and condition. Three separate samples were taken for each condition. The samples were ground in liquid N2, homogenized in RIPA buffer (1% Nonidet P-40/0.5% deoxycholate sodium/0.1% SDS/10 μg/ml aprotinin/100 μg/ml leupeptin/1 mM 4-(2-aminoethyl)benzenesulfonylfluoride in PBS) with a polytron (Bioblock Scientific), and then centrifuged. The extract was verified by Coomassie blue staining. Each sample was loaded at 10 μg in 7.5% resolving acrylamide gel and electrotransferred on to a nylon membrane. Immunoblot analyses used rabbit mAb against rat BKCa (Alomone Labs, Jerusalem, no. APC-021 at 1/500) and mouse monoclonal anti-actin (Santa Cruz Biotechnology, clone C-2 at 1/500). […] All experiments were repeated two or three times. Quantification of the data was performed using the SCION IMAGE program from the National Institutes of Health."}, "[4]": {"settings": "cited from earlier work"}}, "note": "“Also recorded” adds a separate entry of the source."}
{"molecule": "C[C@]12CC[C@H](O)CC1=CC[C@@H]1[C@@H]2CC[C@]2(C)C(=O)CC[C@@H]12", "note": "[DHEA, dehydroepiandrosterone]", "values": [{"measurement": "increase of tension induced by IbTx", "setting": "BKCa [1]; 100 nM IbTx", "value": 52, "unit": "%"}, {"measurement": "increase of tension induced by IbTx", "setting": "BKCa [1]; 300 nM IbTx", "value": 55, "unit": "%"}, {"measurement": "sensitivity/reactivity of IPA rings to IbTx", "setting": "BKCa [1]; rings from CH-DHEA rats vs CH rats", "value": "increase the sensitivity for IbTx; also recorded: increase in the IbTx response; also recorded: higher reactivity to IbTx"}, {"measurement": "pressure response to an acute hypoxic challenge", "setting": "acute hypoxic challenge", "value": "restored"}, {"measurement": "effect on [Ca2+]i", "setting": "PASMCs from CH rats; DHEA 100 μM, PASMCs from normoxic, normoxic-DHEA and CH-DHEA rats", "value": "did not alter"}, {"measurement": "resting [Ca2+]i value", "setting": "PASMCs from CH rats; PASMCs from CH rats, 15 minute in vitro 100 μM DHEA, before 143±7", "value": "82 ± 3", "unit": "nM"}, {"measurement": "effect on resting [Ca2+]i", "setting": "PASMCs from CH rats; PASMCs from CH rats, in vitro DHEA 100 μM", "value": "significant decrease; also recorded: decrease of the resting [Ca^2+]i"}, {"measurement": "increase in media layer thickness compared with control rats", "setting": "IPA wall; CH-DHEA rats, 3 weeks, CH untreated 33%", "value": 11, "unit": "%"}, {"measurement": "effect on PA wall remodeling (prevention)", "setting": "IPA wall; oral DHEA 3 weeks during CH", "value": "significant protective effect; also recorded: almost entirely prevent; also recorded: prevented the PA wall remodeling"}, {"measurement": "effect on PA wall remodeling (reversal)", "setting": "IPA wall; oral DHEA during last week of 3 weeks CH", "value": "partially but significantly reversed; also recorded: decreased the PA remodeling"}, {"measurement": "effect of additional intravascular DHEA on PAP", "setting": "[2]; 3-week CH-DHEA treated rats", "value": "did not further reduce PAP; also recorded: no effect"}, {"measurement": "PAP", "setting": "[2]; 3-wk CH rats, ten minutes after acute intravascular DHEA 3 mg/kg, before 34.5±1.7", "value": "24.4±2.5", "unit": "mmHg"}, {"measurement": "dose dependence of PAP decrease", "setting": "[2]; CH rats, intravascular, successively increasing doses up to 3 mg/kg", "value": "dose-dependent manner"}, {"measurement": "effect on PAP/PAH", "setting": "[2]; CH rats, single intravascular dose of DHEA 3 mg/kg", "value": "significant decrease in PAP; also recorded: significantly decreased PAH"}, {"measurement": "PAP", "setting": "[2]; CH-DHEA rats: oral DHEA 30 mg/kg every alternate day during 3 wk hypoxia, untreated CH 34.5±1.7", "value": "21.7±1.1", "unit": "mm Hg"}, {"measurement": "decrease of PAP", "setting": "[2]; CH-PAH rats, intravascular 0.03 mg/kg", "value": "~10", "unit": "%"}, {"measurement": "decrease in PAP", "setting": "[2]; CH-PAH rats, intravascular 0.3 mg/kg", "value": "~25", "unit": "%"}, {"measurement": "decrease in PAP", "setting": "[2]; CH-PAH rats, intravascular 3.0 mg/kg", "value": "~45", "unit": "%"}, {"measurement": "PAP, CH-DHEA vs control rats", "setting": "[2]; after 1 or 2 wk of hypoxia exposure with oral DHEA", "value": "no difference"}, {"measurement": "effect of intravascular DHEA on PAP", "setting": "[2]; control animals", "value": "no effect"}, {"measurement": "effect on PAP/PAH (reversal)", "setting": "[2]; hypertensive CH rats, 1-wk oral DHEA 30 mg/kg every alternate day", "value": "partially but significantly reversed; also recorded: significantly decreased PAH"}, {"measurement": "effect on PAP (prevention)", "setting": "[2]; oral DHEA for 3 weeks during chronic hypoxia, vs CH rats", "value": "significant preventive effect; also recorded: decreased; also recorded: almost entirely prevent"}, {"measurement": "effect on PAP", "setting": "[2]; oral DHEA, normoxic rats", "value": "no effect"}, {"measurement": "PAP", "setting": "[2]; rats 3 weeks in CH, oral DHEA during the last week, no DHEA 35.9±1.9", "value": "21±1.1", "unit": "mm Hg"}, {"measurement": "effect on CH-induced decrease of BKCa protein", "setting": "BKCa [3]", "value": "This decrease was prevented; also recorded: up-regulation"}, {"measurement": "immunoreactive signal of BKCa-subunit, CH-DHEA higher than CH", "setting": "BKCa [3]; three separate comparisons", "value": "48.6±5.6", "unit": "%"}, {"measurement": "toxicity in short- and long-term human studies", "setting": "[4]; Baulieu et al. 2000", "value": "without major toxicity"}, {"measurement": "safety of large amounts in human patients", "setting": "[4]; Tummala & Svec 1999", "value": "safely administered"}]}
